Measurements taken from patent US9126060B2, “Cosmetic use of geranylgeranyl-2-propanol” (SEDERMA, priority 2010, dated 2015).

Tests used:
[1] = ORAC test (Oxygen-Radical Absorbance Capacity): fluorescein degradation by peroxyl radicals; assay type: biochemical; details: n = 6
Text: Principle: the ORAC test (“Oxygen-Radical Absorbance Capacity”) measures degradation by the oxidative way of a fluorescent molecule (fluorescein). Degradation of fluorescein by peroxyl radicals generated by AAPH (2,2′-azobis (2-amidinopropane) dichloride) induces a decrease in fluorescence measured by a spectrofluorometer during a degradation kinetic.
An antioxidant protects this fluorescein against this radical degradation. The decrease in fluorescence will be smaller and slower in the presence of the antioxidant than in its absence. The comparison between the parameters of the two kinetics makes it possible to calculate a percentage of protection against free radical degradation.

human dermal fibroblasts = assay: ATP synthesized by fibroblasts in premature senescence after oxidizing stress (chemiluminescence); assay type: cell-based; details: for ATP: after hydrogen peroxide stress
Procedure: Principle: human dermal fibroblasts at confluence received the GGP for 24 h. After this phase, they were treated with hydrogen peroxide in the presence or absence of the GGP. This stress is intended to induce premature senescence (SIPS) in cells and thus a decrease in ATP synthesis. A few hours after this stress, cells were lysed and the amount of intracellular ATP was assessed by chemiluminescence. This amount of ATP was divided by the amount of intracellular proteins.

Keratinocytes = assay: Keratinocyte culture survival and recovery after UVB stress (cell count); assay type: cell-based; details: for Cell number, mean (n = 3): UVB 50 mJ/cm^2, six days later
Procedure: Keratinocytes in monolayer, after an UVB radiation (12 to 240 mJ/cm^2), develop on their surface many burgeons, detach from the culture medium, undergo damages up to death. A cell count at various times after UVB radiation is used to evaluate the cell viability of the culture. This model is widely used in cosmetics to evaluate the protective effect of various compounds against the deleterious effects of UVB stress.
Principle: Keratinocytes were cultured in 35 mm dish. Just at confluence, the cells are contacted or not with the GGP for 24 hours. UVB irradiation (50 mJ/cm^2) is performed the next day, and the cells are or not contacted with the GGP. Six days later, the cells are counted to determine the cell viability in culture.

stratum corneum = assay: Ex vivo lipoperoxidation of stratum corneum extracts from volunteers (8-isoprostanes ELISA); assay type: in vivo, human; details: cream containing 0.04% of GGP 2 times daily for 2 months on forearm; compared with placebo extracts; H2O2/FeCl2 stress; 13 volunteers
Text: Lipids of the stratum corneum are the primary targets of free radical aggressions. Thus, it seemed interesting to test the antiradical capacity of the GGP in ex vivo condition on extracts of stratum corneum from volunteers who applied for 2 months, on one arm a placebo cream and on the other arm the GGP cream (Formulation 2/2 in the examples given above). These extracts are stressed to oxidize lipids. A lower oxidation in skin extracts which were in contact with the GGP is seeked.
Principle: 13 volunteers have applied 2 times daily for 2 months in a randomized manner the cream containing 0.04% of GGP on one forearm. The placebo cream was applied controlateral. Each subject was therefore their own control. At T0 and T2, specimens of stratum corneum were taken on the 2 arms with 3 adhesive discs per aim, and for each disk 15 take off (saturation of the disk).
The disks were stored at −20° C. until lipoperoxidation testing. After rapid thawing at room temperature, the 3 discs from the same arms were collected and sonicated in a suitable diluent, to take off and recover the maximum amount of stratum corneum samples. The resulting suspension was then stressed overnight at 45° C., using a H2O2/FeCl2 solution. The lipid peroxidation was assessed by measuring 8-isoprostanes (ELISA assay). The data were normalized using a protein assay.

## CC(C)=CCC/C(C)=C/CC/C(C)=C/CC/C(C)=C/CCC(C)O (stereo not shown) [GGP, 6,10,14,18-tetramethylnonadeca-5,9,13,17-tetraen-2-ol]
[1]; 10 ppm
  % of protection: 56%
[1]; 50 ppm
  % of protection: 68%
[1]; 200 ppm
  % of protection: 77%
[1]; 400 ppm
  % of protection: 87%
Human dermal fibroblasts; 5 ppm
  Change (%) of ATP vs after-stress control: +76%; p <
  ATP: 311 +/− 80 nM/0.1 μg protein
Human dermal fibroblasts; 7 ppm
  Change (%) of ATP vs after-stress control: +460%; p <
  ATP: 988 +/− 38 nM/0.1 μg protein
Keratinocytes; 1 ppm
  % change/control of cell number: +31%
  Cell number, mean (n = 3): 4.83 ×10^5/35 mm dish
Keratinocytes; 1.65 ppm
  % change/control of cell number: +38%
  Cell number, mean (n = 3): 5.08 ×10^5/35 mm dish
Stratum corneum
  level of protection against oxidation: +44%
